In patent US12637471B2, “Heterocyclic compounds, compositions, methods of preparation and uses thereof” (Organon R&D Finland Ltd, priority 2021, dated 2026):

Legend:
Type in all cases: biochemical
[1] = molecular target: T1, Recombinant human AKR1C3 (17β-HSD5) protein (Homo sapiens, UniProt P42330); test: Inhibition of AKR1C3 (17β-hydroxysteroid dehydrogenase type 5) enzyme, fluorescence assay; conditions: inhibitor at 500 nM
T1 construct: made in house; host or cells: E. coli
T1 sequence (P42330 1-323): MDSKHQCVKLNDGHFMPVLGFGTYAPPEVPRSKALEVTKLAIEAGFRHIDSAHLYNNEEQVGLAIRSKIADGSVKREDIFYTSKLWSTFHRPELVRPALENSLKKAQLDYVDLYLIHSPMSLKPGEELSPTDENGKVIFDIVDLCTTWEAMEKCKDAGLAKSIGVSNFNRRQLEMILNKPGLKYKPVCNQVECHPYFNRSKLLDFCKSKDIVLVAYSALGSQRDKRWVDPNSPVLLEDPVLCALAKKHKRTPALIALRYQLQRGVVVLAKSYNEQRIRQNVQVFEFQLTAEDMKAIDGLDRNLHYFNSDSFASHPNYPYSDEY
Experimental: Inhibition of AKR1C3 (17β-Hydroxysteroid Dehydrogenase Type 5) Enzyme
Recombinant human AKR1C3 (17β-HSD5) protein (GenBank Accession No. NM_003739.6) produced in E. coli was used for screening. Recombinant protein (27 nM/1 μg/ml) was incubated in 20 mM KH2PO4, 1 mM EDTA, complete protease inhibitor cocktail, pH 7.4 with 1 μM 9-acetyl-2,3,6,7-tetrahydro-1H,5H,11H-pyrano[2,3-f]pyrido[3,2,1-ij]quinolin-11-one and 1 mM NADPH for 60 to 120 min at RT, in the presence of the potential inhibitor at 500 nM concentration. Inhibitor stock solutions were prepared in DMSO. Final concentration of DMSO was adjusted to 1% in all samples. The samples were analysed by fluorescent measurement with Tecan Spark microplate reader at wavelengths 420 nm for excitation and 510 nm for emission. Samples were evaluated against standards of 9-(1-hydroxyethyl)-2,3,6,7-tetrahydro-1H,5H,11H-pyrano[2,3-f]pyrido[3,2,1-ij]quinolin-11-one at concentrations 1 μM-10 nM. Background fluorescence was reduced from all the samples and standards. The concentrations of formed product were calculated from the standard curve with Tecan Spark Magellan software. The formed product concentrations were used to calculate conversion percentages. The inhibition percentages for the samples were calculated from the conversion percentages.
Inhibition percentages of samples were calculated using following formula: […]

[2] = molecular target: T2, 17β-Hydroxysteroid Dehydrogenase Type 2 Enzyme (17β-HSD2) (Homo sapiens, UniProt P37059); test: Inhibition of the 17β-hydroxysteroid dehydrogenase type 2 enzyme, 3H-testosterone conversion; conditions: inhibitor at 10 μM
T2 construct: made in house; host or cells: Sf-9 insect cells (baculovirus)
T2 sequence (P37059 1-387): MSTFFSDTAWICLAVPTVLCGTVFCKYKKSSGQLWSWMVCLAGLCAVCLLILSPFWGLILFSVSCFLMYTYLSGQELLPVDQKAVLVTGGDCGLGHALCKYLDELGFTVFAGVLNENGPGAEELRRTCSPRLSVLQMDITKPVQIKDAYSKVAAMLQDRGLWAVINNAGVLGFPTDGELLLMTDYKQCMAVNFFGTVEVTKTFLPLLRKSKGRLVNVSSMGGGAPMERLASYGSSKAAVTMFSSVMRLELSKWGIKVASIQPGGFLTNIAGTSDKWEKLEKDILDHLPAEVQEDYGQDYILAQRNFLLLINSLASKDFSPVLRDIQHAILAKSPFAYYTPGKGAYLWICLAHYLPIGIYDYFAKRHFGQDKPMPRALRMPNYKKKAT
Experimental: Inhibition of the 17β-Hydroxysteroid Dehydrogenase Type 2 Enzyme
Recombinant human 173-HSD2 protein (GenBank Accession No. NM_002153.3) produced in Sf-9 insect cells with baculovirus was used for screening.
Recombinant protein (105 nM/4.5 μg/ml) was incubated in 20 mM KH2PO4 pH 8.5, 1 mM EDTA, complete protease inhibitor cocktail, 1 mM NAD with 56.25 nM testosterone (including ^3H-labelled testosterone) for 30 min at RT, in the presence of the potential inhibitor at 10 μM concentration. Inhibitor stock solutions were prepared in DMSO. Final concentration of DMSO was adjusted to 1% in all samples. The enzyme reaction was stopped by addition of 10% trichloroacetic acid (final concentration 1%). Samples were filtrated through […] filtration plate. Analyses of samples was done with Waters Acquity UPLC H-class equipped with XBridge C18 column and XBridge VanGuard C18 guard column. Acetonitrile: 0.1% formic acid in water (42/58 v/v) with flow of 1.2 ml/min was used for mobile phase. The eluent was mixed with scintillant and the radioactivity was monitored in the eluate by a Scintillation Analyser. The conversion percentage of tritiated substrate (testosterone) to product tritiated (androstenedione) for each sample was determined by the relative percentages of substrate and product in the chromatogram. The inhibition percentages of samples were calculated using following formula: […]

[3] = molecular target: T3, Recombinant human aldo-keto reductase family 1 member C2 (AKR1C2) protein (Homo sapiens, UniProt P52895); test: Inhibition of the aldo-keto reductase family 1 member C2, 3H-dihydrotestosterone conversion; conditions: inhibitor at 10 μM
T3 construct: made in house; host or cells: Sf-9 insect cells (baculovirus)
T3 sequence (P52895 1-323): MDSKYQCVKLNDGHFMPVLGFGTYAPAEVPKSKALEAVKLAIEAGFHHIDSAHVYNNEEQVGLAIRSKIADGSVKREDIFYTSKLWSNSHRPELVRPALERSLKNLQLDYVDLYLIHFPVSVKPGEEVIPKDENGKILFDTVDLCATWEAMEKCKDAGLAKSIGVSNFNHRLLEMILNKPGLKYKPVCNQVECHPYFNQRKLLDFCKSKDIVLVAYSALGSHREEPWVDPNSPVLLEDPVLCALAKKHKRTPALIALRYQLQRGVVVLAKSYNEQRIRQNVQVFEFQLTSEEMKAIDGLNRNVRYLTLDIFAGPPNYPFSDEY
Experimental: Inhibition of the Aldo-Keto Reductase Family 1 Member C2
Recombinant human aldo-keto reductase family 1 member C2 (AKR1C2) protein (GenBank Accession No. NM_001354.6) produced in Sf-9 insect cells with baculovirus was used for screening. Recombinant protein (13.6 nM/0.5 μg/ml) was incubated in 20 mM KH2PO4 pH 7.4, 1 mM EDTA, complete protease inhibitor tablet, 1 mM NADPH with 6.25 nM ^3H-labelled dihydrotestosterone for 45 min at +37° C., in the presence of the potential inhibitor at 10 μM concentration. Inhibitor stock solutions were prepared in DMSO. Final concentration of DMSO was adjusted to 1% in all samples. The enzyme reaction was stopped by addition of 10% trichloroacetic acid (final concentration 1%). Samples were filtrated through […] filtration plate (Merck). Analyses of samples was done with Waters Acquity UPLC H-class equipped with XBridge C18 column and XBridge VanGuard C18 guard column. Acetonitrile: 0.1% formic acid in water (42/58 v/v) with flow of 1.2 ml/min was used for mobile phase. The eluent was mixed with scintillant and the radioactivity was monitored in the eluate by a Scintillation Analyser. The conversion percentage of triated substrate (dihydrotestosterone) to tritiated product (5α-androstane-3α,17β-diol) for each sample was determined by the relative percentages of substrate and product in the chromatogram. The inhibition percentages of samples were calculated using following formula: […]

| inhibition at 0.5 µM [1] | inhibition at 10 µM [2] | inhibition at 10 µM [3] | Compound |
| --- | --- | --- | --- |
| 95% | 14% | 15% | N#CC(=C1CCN(C(=O)N2CCc3cccnc32)CC1)c1ccc(F)cc1 [Compound 30, 2-(1-(2,3-dihydro-1H-pyrrolo[2,3-b]pyridine-1-carbonyl)piperidin-4-ylidene)-2-(4-fluorophenyl)acetonitrile] |
| 97% | 7% | 3% | N#CC(=C1CCN(C(=O)N2CCn3cncc3C2)CC1)c1ccc(OC(F)(F)F)cc1 [Compound 55, 2-(1-(5,6,7,8-tetrahydroimidazo[1,5-a]pyrazine-7-carbonyl)piperidin-4-ylidene)-2-(4-(trifluoromethoxy)phenyl)acetonitrile] |
| 101% | -4% | 22% | N#CC(=C1CCN(C(=O)N2CCc3nocc3C2)CC1)c1cc(F)cc(F)c1 [Compound 158, 2-(3,5-difluorophenyl)-2-(1-(4,5,6,7-tetrahydroisoxazolo[4,3-c]pyridine-5-carbonyl)piperidin-4-ylidene)acetonitrile] |
| 99% | 12% | 17% | N#CC(=C1CCN(C(=O)N2CCc3ccccc32)CC1)c1ccc(F)cc1 [Compound 102, 2-(4-fluorophenyl)-2-(1-(indoline-1-carbonyl)piperidin-4-ylidene)acetonitrile] |
| 99% | 26% | 13% | N#CC(=C1CCN(C(=O)N2CCC(CO)CC2)CC1)c1cccc(Cl)c1 [Compound 88, 2-(3-chlorophenyl)-2-(1-(4-(hydroxymethyl)piperidine-1-carbonyl)piperidin-4-ylidene)acetonitrile] |
| 95% | -4% | 19% | CN(C(=O)N1CCC(=C(C#N)c2ccc(Cl)s2)CC1)C1COC1 [Compound 103, 4-((5-chlorothiophen-2-yl)(cyano)methylene)-N-methyl-N-(oxetan-3-yl)piperidine-1-carboxamide] |
| 99% | -7% | 32% | N#CC(=C1CCN(C(=O)N2CCn3cncc3C2)CC1)c1ccc(Cl)s1 [Compound 121, 2-(5-chlorothiophen-2-yl)-2-(1-(5,6,7,8-tetrahydroimidazo[1,5-a]pyrazine-7-carbonyl)piperidin-4-ylidene)acetonitrile] |
| 97% | 12% | 16% | N#CC(=C1CCN(C(=O)N2CCC(CO)CC2)CC1)c1cc(F)cc(F)c1 [Compound 50, 2-(3,5-difluorophenyl)-2-(1-(4-(hydroxymethyl)piperidine-1-carbonyl)piperidin-4-ylidene)acetonitrile] |
| 99% | 17% | 3% | CCN(CC)C(=O)N1CCC(=C(C#N)c2ccc(C(F)(F)F)cc2)CC1 [Compound 171, 4-(cyano(4-(trifluoromethyl)phenyl)methylene)-N,N-diethylpiperidine-1-carboxamide] |
| 96% | 28% | 27% | N#CC(=C1CCN(C(=O)N2CCc3sccc3C2)CC1)c1ccc(F)c(F)c1 [Compound 35, 2-(3,4-difluorophenyl)-2-(1-(4,5,6,7-tetrahydrothieno[3,2-c]pyridine-5-carbonyl)piperidin-4-ylidene)acetonitrile] |
| 92% | -1% | 14% | N#CC(=C1CCN(C(=O)N2CCCC(O)CC2)CC1)c1ccc(F)cc1 (stereo not drawn) [Compound 107, 2-(4-fluorophenyl)-2-(1-(4-hydroxyazepane-1-carbonyl)piperidin-4-ylidene)acetonitrile] |
| 98% | 7% | 19% | N#CC(=C1CCN(C(=O)N2CCc3nocc3C2)CC1)c1ccc(Cl)cn1 [Compound 161, 2-(5-chloropyridin-2-yl)-2-(1-(4,5,6,7-tetrahydroisoxazolo[4,3-c]pyridine-5-carbonyl)piperidin-4-ylidene)acetonitrile] |
| 99% | 22% | 29% | N#CC(=C1CCN(C(=O)N2CCC(CO)CC2)CC1)c1ccc(Cl)s1 [Compound 63, 2-(5-chlorothiophen-2-yl)-2-(1-(4-(hydroxymethyl)piperidine-1-carbonyl)piperidin-4-ylidene)acetonitrile] |
| 98% | 1% | 17% | N#CC(=C1CCN(C(=O)N2CCn3nncc3C2)CC1)c1ccc(OC(F)(F)F)cc1 [Compound 162, 2-(1-(4,5,6,7-tetrahydro-[1,2,3]triazolo[1,5-a]pyrazine-5-carbonyl)piperidin-4-ylidene)-2-(4-(trifluoromethoxy)phenyl)acetonitrile] |
| 98% | 23% | 6% | N#CC(=C1CCN(C(=O)N2CCc3nocc3C2)CC1)c1ccc(F)cn1 [Compound 84, 2-(5-fluoropyridin-2-yl)-2-(1-(4,5,6,7-tetrahydroisoxazolo[4,3-c]pyridine-5-carbonyl)piperidin-4-ylidene)acetonitrile] |
| 97% | 18% | 8% | N#CC(=C1CCN(C(=O)N2CCC(C(F)(F)F)CC2)CC1)c1ccc(F)cc1 [Compound 98, 2-(4-fluorophenyl)-2-(1-(4-(trifluoromethyl)piperidine-1-carbonyl)piperidin-4-ylidene)acetonitrile] |
